# “Also recorded” adds a separate entry of the source. Counter-ions that a name gives are not always drawn. Like-named read-outs stand apart in the source and are kept apart here.
# Columns and labels:
# [1] = tested on: Jc1 378-1 TagRFP reporter HCV virus; assay: In vitro inhibition of HCV in Huh-7.5 cells; assay type: cell-based, hepatitis C virus; conditions: for inhibition of HCV replication: Huh-7.5 cells, MOI=0.1, 3 dpi; for mean fluorescence intensity (MFI) of HCV positive cells: normalized to DMSO control
# Description: The compound of formula (II) was also tested for the in vitro inhibition of HCV. Huh-7.5 cells were seeded in a 24-well plates (50,000 cells/well) and incubate over night. The medium was changed to compound/solvent containing medium 2 hours prior to infection (200 μL/well) with a reporter HCV virus called Jc1 378-1 TagRFP. A dilute virus stock was used to infect at a MOI of 0.1 (7,500 IU/well) in 10 μL medium. 10 μL of virus dilution was added to the wells containing compound/solvent (thereby dilution the compounds by only ˜5%). Infections were incubated for 4 hours before washing off the inoculum 1× with 500 μL medium. Fresh compound/solvent containing medium was added to the cells (500 μL/well), and further incubated for 48-72 hours. Cells were harvested at 48-72 hpi and viral replication was determined by fixing the cells and measuring replication by FACS (fluorescence activated cell sorting). Controls having antibodies that neutralize HCV by blocking E2 (2 μg/mL) and controls having antibodies that block a HCV receptor CD81 (2 μg/mL) were used.
# A series of tests were conducted using the compound of Formula II ML278), other known inhibitors of SRB1 and controls with cells infected with hepatitis C virus (HCV). The cells (Huh-7.5 cells infected with Jc1 378-1 TagRFP (MOI=0.1) 3 dpi) were treated with the following SR-BI compounds and controls:
# Three different infection protocols were followed: (1) no wash—virus inoculum was removed 4 hpi and fresh medium containing compounds added without washing cells; (2) 5× wash—virus inoculum was removed 4 hpi, cells were washed 5× with PBS and fresh medium containing compounds added; and (3) no wash Opt—infection were performed in serum-free OptiMem; virus inoculum was removed 4 hpi and fresh medium containing compounds added without washing cells. FIG. 107 provides a comparison of the three different infection set-ups. FIG. 108 provides a comparison of two independent experiments.
# [2] = target: T1, murine SR-BI (Mus musculus, UniProt Q61009); assay: DiI-HDL uptake assay (primary assay); assay type: cell-based
# T1 construct: expressed in transfected cells; host or cells: ldlA[mSR-BI]; (CHO ldlA7 derivative lacking the LDL receptor)
# T1 sequence (Q61009 1-509): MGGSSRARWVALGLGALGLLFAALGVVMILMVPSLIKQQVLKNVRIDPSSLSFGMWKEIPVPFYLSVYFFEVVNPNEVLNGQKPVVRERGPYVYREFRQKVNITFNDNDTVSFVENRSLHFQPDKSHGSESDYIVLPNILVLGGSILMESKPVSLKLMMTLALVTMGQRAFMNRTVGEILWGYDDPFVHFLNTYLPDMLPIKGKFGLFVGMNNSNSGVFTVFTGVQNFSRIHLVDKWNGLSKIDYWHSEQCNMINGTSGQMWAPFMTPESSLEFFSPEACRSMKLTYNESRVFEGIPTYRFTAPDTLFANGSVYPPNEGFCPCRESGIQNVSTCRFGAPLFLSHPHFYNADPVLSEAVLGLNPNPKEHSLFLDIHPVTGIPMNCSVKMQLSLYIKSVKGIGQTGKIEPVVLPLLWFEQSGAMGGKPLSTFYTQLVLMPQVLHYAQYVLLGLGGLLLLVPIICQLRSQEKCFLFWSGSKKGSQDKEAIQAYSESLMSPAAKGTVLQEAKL
# Source text: The following cell lines were used in this study: • ldlA[mSR-BI] is a Chinese hamster ovary (CHO) cell line that overexpresses murine SR-BI, isoform 1 (NP_058021) and was obtained from the Assay Provider (Krieger Laboratory). This cell line was used for the primary assay and several secondary assays. […] This cell line was obtained from the Assay Provider. Assays DiI-HDL Uptake Assay (Primary Assay AID Nos. 488896, 493194, 540354 588392, 588553, 588548, 588754, 588828, 588833)
# ldlA[mSR-BI]cells were plated into 384-well plates at 30 μl per well and incubated overnight. As a measurable surrogate for cholesterol uptake, human HDL particles were treated with the lipophilic fluorescent dye DiI and exposed to ldlA[mSR-BI]cells in lipoprotein-free media (Ham's F12/0.5% fatty acid-free Bovine Serum Albumin (BSA)/25 mM HEPES pH 7.4 plus 10 μg protein/ml DiI-HDL). Cells took up the DiI via SR-BI over 3 hours in the presence of compound. After significant uptake of the DiI, the cells became fluorescent. The level of fluorescence correlates with the amount of DiI uptake and can be measured with a standard plate reader (here a PerkinElmer EnVision plate reader was used). The uptake of lipid (represented by DiI) was inhibited by the positive control compound BLT-1 or with an excess of HDL untreated with DiI. Primary HTS data were analyzed in Genedata Screener Assay Analyzer, and were normalized against DMSO and the positive control (1 μM BLT-1). For the HTS, the average of two replicates was used to rank order activity and to choose compounds for retests. For dose studies, percent (%) activity was determined for each concentration and the concentration response curves (CRCs) were generated with Genedata Condeseo.
# To identify novel inhibitors, SR-BI-mediated lipid uptake was measured in an engineered cell line that minimized potential uptake by other mechanisms, including via the LDL receptor (1). ldlA[mSR-BI]cells overexpress murine isoform 1 and selectively take up HDL lipid at similar levels as “has been reported for cultured mouse adrenal cells, perfused organs, and liver, adrenal gland and ovary in vivo” (1). This primary cell-based assay was used in a pilot screen that identified BLTs 1 through 5 (12). The assay was slightly modified from the original protocol of Nieland et al. to increase throughput and to ease automation procedures.
# [3] = tested on: endocytosis of transferrin; assay: Transferrin endocytosis assay; assay type: cell-based
# Source text: Transferrin Endocytosis Assay (SA 3: AID No. 602134) This assay measures the endocytosis of an independent ligand, transferrin, which is not taken up via SR-BI but by clathrin-mediated endocytosis. This assay provides a measure of the selectivity of the inhibitors. Alexa-594-labeled transferrin is taken into the cell via endocytosis and localization of labeled transferrin was quantitated in the various intracellular compartments. […] Inhibitors of interest should act selectively at SR-BI and should have no activity in this assay. Cells were pre-treated with compound for 3 hours and then treated with the Alexa-594 transferrin reagent for 30 minutes (Catalog No. T-13343; Invitrogen) in serum-free media. Plates of cells were then placed onto ice, washed with ice cold PBS, and then fixed with 4% paraformaldehyde. In addition, the nuclei were stained with 300 nM 4′,6-diamidino-2-phenylindole (DAPI) (Catalog No. 21490; Invitrogen). The cells were imaged with the Molecular Devices IXM microscope (FIG. 22). Translocation measurements were performed using MetaExpress software and normalized for cell number.
compound,measurement,setting,value
CC(=O)Nc1ccc(Cl)c(C(=O)Nc2ccc(N3CCN(C(=O)OC(C)(C)C)CC3)cc2)c1 [Compound R-154716],inhibition of HCV replication,[1]; listed as SRB1-2,inhibited viral replication; also recorded: able to inhibit HCV replication
same,mean fluorescence intensity (MFI) of HCV positive cells,[1],increased mean fluorescence intensity (MFI) of HCV positive cells in a dose dependent manner
COc1c(NC(=O)C(=O)c2ccc(OCCN3CCOCC3)c3ccccc23)cc(C(C)(C)C)cc1NS(C)(=O)=O [ITX-5061],inhibition of HCV replication,[1]; listed as SRB1-9,inhibited viral replication; also recorded: able to inhibit HCV replication
same,mean fluorescence intensity (MFI) of HCV positive cells,[1],this increase was not seen
"COc1cc(OC)cc(C(=O)Nc2nc(-c3ccc4c(c3)CCN4C(=O)OC(C)(C)C)cs2)c1 [Boc carbamate, tert-Butyl 5-(2-(3,5-dimethoxybenzamido)thiazol-4-yl)indoline-1-carboxylate]",IC50,"[2]; read-out: IC50, DiI-HDL uptake",0.9 nM
"COc1cc(OC)cc(C(=O)Nc2nc(-c3ccc4c(c3)CCN4)cs2)c1 [N-(4-(Indolin-5-yl)thiazol-2-yl)-3,5-dimethoxybenzamide, trifluoroacetic acid salt]",loss of activity/potency relative to parent analog,[2],approximately 3 fold
CCC(=O)N1CCc2cc(-c3csc(NC(=O)c4ccco4)n3)ccc21 [MLS001217863],IC50,"[2]; range, read-out: range of IC50 for HDL-mediated lipid uptake",0.93 to 6 nM
same,endocytosis of transferrin,[3],not grossly perturbing cellular membrane trafficking pathways
